# Experiments:
# [1] = molecular target: Purified free alpha and beta tubulin dimers (Homo sapiens, UniProt P07437+Q71U36); conditions: comparison drugs; cited from earlier work
# [2] = test system: HCT 116 cells; experiment: Viability IC50, high-throughput automated analysis (Table 4); format: cell-based; conditions: Homo sapiens, 3 population doubling times
# Description: (§1) FIG. 1A) is a line graph showing changes in the percentage of viable HFF-1, HeLa, A549 and HCT 116 cells after treatment with a range of C75 concentrations for 3 population doubling times (N=3). […] There were more rounded mitotic cells after C75 treatment in comparison to the control. FIG. 1C) is a line graph showing the percentage of HeLa and HFF1 cells in mitosis after treatment with various concentrations of C75 for 8 hours. The bars indicate standard deviation. FIG. 1D) is a series of images showing cells that were fixed and co-stained for tubulin (microtubules) and DAPI (DNA). Treatment of HeLa cells with 300 nM C75 caused the mitotic spindles to be disorganized, while they were not affected in HFF1 cells. […] The scale bar for the cells is 10 μm. […] FIG. 1F) is a cartoon schematic showing the key features of a metaphase cell.
# (§2) The images in FIG. 1B) show fields of view of HeLa cells treated with (dimethyl sulfoxide) DMSO or 500 nM of C75. […] Higher concentrations of C75 caused spindle phenotypes in HFF1 cells, but they were quite different in comparison to HeLa cells (FIG. 1D).
# [3] = test system: HFF-1 cells; experiment: as above; format: cell-based; conditions: Homo sapiens, 3 population doubling times
# Description: as §1, §2
# [4] = test system: A549 cells; experiment: as above; format: cell-based; conditions: Homo sapiens, 3 population doubling times
# Description: as §1, §2
# [5] = test system: HeLa cells; experiment: as above; format: cell-based; conditions: Homo sapiens, 3 population doubling times
# Description: as §1, §2
# [6] = test system: A549 cells; experiment: IC50 of derivatives (Table 5); format: cell-based, human; conditions: Table 5, cell line only named in b213 (A549)
# [7] = test system: HeLa cells in metaphase; experiment: Short treatment and washout, spindle recovery; format: cell-based, human; conditions: 5 minutes treatment, washout, imaged after 40 minutes
# Excerpt: For each condition, 20,000 cells were counted per replicate (N=3). Line graphs (right) were made to better illustrate the relative changes in the cell cycle phases for the different treatments. Bars show standard deviation. The asterisks indicate the first statistically significant change in the G0/G1 and G2/M populations determined by a two-way ANOVA with a post-hoc Tukey's multiple comparisons test using 95% confidence intervals. FIG. 2B) is a line graph showing the percentage of HCT116 (p53−/−) cells, A549 cells, HeLa cells and H1299 cells in mitosis after treatment with various concentrations of C75 for one population doubling time. All of the cell lines show an increase in the proportion of mitotic cells after treatment with 200 nM C75. The bars indicate standard deviation. […]
# C75 was also tested for efficacy in different cancer cell lines. […] To further assess the role of C75 in disrupting spindles, HeLa cells were treated with 300 nM C75 for 4 hours and the spindle phenotypes were analyzed in more detail (FIG. 2E). […] To assess the affect of C75 on centrosomes, HeLa cells were treated with C75 or nocodazole (a drug that causes microtubule depolymerization as a control) for a short period of time (5 minutes), then the drugs were removed and the cells were analyzed for spindle phenotypes (schematic in FIG. 2G). […]
# [8] = test system: HFF1 (fibroblast) non-cancer cells; experiment: Cell viability IC50 (Table 3); format: cell-based; conditions: HFF-1 non-cancer cells
# Description: (§3) To date, 30 variants with different structural modifications have been made. […] In particular, it is shown that C75 causes death in multiple cancer cells with IC50 values in the 100-400 nM range, including breast cancers (MCF7, BT549), lung cancer (A549), colorectal cancer (HCT116) in addition to HeLa cells (cervical cancer).
# [9] = test system: MCF7, BT549, A549, HCT116, HeLa cells; experiment: Viability in cancer vs non-cancer cell lines, summary of Table 3; format: cell-based, human
# Description: as §3
# [10] = test system: MCF-7 (mammary gland carcinoma) cells; experiment: Cell viability IC50 (Table 3); format: cell-based, human; conditions: MCF-7 cells
# Description: as §3
# [11] = test system: BT549 (breast ductal carcinoma) cells; experiment: Cell viability IC50 (Table 3); format: cell-based, human
# Description: as §3
# [12] = test system: HeLa (cervical adenocarcinoma) cells; experiment: Cell viability IC50 (Table 3); format: cell-based, human
# Description: as §3
# [13] = molecular target: Aurora A kinase (Homo sapiens, UniProt O14965); conditions: in vitro; cited from earlier work
# [14] = test system: A549 cells; experiment: Spindle morphology, DAPI and tubulin staining; format: cell-based, human; conditions: 300 nM, 4 hours
# Description: FIG. 1A) is a line graph showing changes in the percentage of viable HFF-1, HeLa, A549 and HCT 116 cells after treatment with a range of C75 concentrations for 3 population doubling times (N=3). […] FIG. 1C) is a line graph showing the percentage of HeLa and HFF1 cells in mitosis after treatment with various concentrations of C75 for 8 hours. The bars indicate standard deviation. FIG. 1D) is a series of images showing cells that were fixed and co-stained for tubulin (microtubules) and DAPI (DNA). […] The scale bar for the cells is 10 μm. […] FIG. 1F) is a cartoon schematic showing the key features of a metaphase cell.
# [15] = test system: HeLa cells with lower levels of endogenous MCAK (MCAK RNAi); experiment: Spindle phenotypes with MCAK RNAi; format: cell-based, human; conditions: 300 nM C75 or 30 nM colchicine
# Excerpt: FIG. 8B) is a bar graph showing the proportion of spindle phenotypes in HeLa cells treated as in 8A).
# Since this is unique to C75, and ch-TOG RNAi was previously shown to be suppressed (partially) by MCAK RNAi, supporting C75's role in targeting ch-TOG or a component of the pathway.
# [16] = test system: HeLa cells with lower levels of endogenous ch-TOG (ch-TOG RNAi); experiment: Spindle phenotypes with ch-TOG RNAi; format: cell-based, human; conditions: 200 nM C75 or 20 nM colchicine
# Excerpt: FIG. 7B) is a bar graph showing the proportion of phenotypes of the HeLa cells observed in the different conditions listed in 7A) (bipolar spindles in light grey; bipolar spindles with misaligned chromosomes in dark grey; multipolar/fragmented spindles in hatched lines; monopolar spindles in black).
# Sequence of Aurora A kinase (O14965 whole entry): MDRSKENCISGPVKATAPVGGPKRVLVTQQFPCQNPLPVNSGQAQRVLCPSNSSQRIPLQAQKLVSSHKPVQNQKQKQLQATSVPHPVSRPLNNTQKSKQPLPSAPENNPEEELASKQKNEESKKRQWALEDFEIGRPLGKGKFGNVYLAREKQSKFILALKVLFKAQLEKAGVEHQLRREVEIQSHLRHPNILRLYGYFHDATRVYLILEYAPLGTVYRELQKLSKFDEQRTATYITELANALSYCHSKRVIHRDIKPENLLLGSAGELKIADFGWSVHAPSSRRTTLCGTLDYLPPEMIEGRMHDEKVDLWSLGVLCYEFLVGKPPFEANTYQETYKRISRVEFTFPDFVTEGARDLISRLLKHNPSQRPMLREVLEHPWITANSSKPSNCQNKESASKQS
smiles,measurement,setting,value
CC[C@]1(O)C[C@@H]2CN(CCc3c([nH]c4ccccc34)[C@@](C(=O)OC)(c3cc4c(cc3OC)N(C)[C@H]3[C@@](O)(C(=O)OC)[C@H](OC(C)=O)[C@]5(CC)C=CCN6CC[C@]43[C@@H]65)C2)C1 [vinblastine],concentration causing a similar decrease of polymerization,[1],~5 µM
O=S(=O)(c1cccs1)N1Cc2ccccc2-c2sccc21 [Compound C87],IC50,[2],> 1000 nM
same,IC50,[3],> 1000 nM
same,IC50,[4],> 1000 nM
same,IC50,[5],> 1000 nM
same,IC50,[6]; Homo sapiens,> 1000 nM
"COC(=O)Nc1nc2ccc(C(=O)c3cccs3)cc2[nH]1 [nocodazole, reference compound]",spindles reformed after drug removal,[7],bipolar spindles reformed
COc1ccc(S(=O)(=O)N2Cc3ccccc3-c3sc(I)cc32)cc1 [Compound C207],IC50,[8],150 nM
same,IC50,[6],433 nM
same,efficacy (effect on viability) in cancer cells vs. non-cancer cells,[9],higher efficacy
same,IC50,[10],86 nM
same,IC50,[11],178 nM
same,IC50,[12],70 nM
COc1ccc(S(=O)(=O)N2Cc3ccccc3-c3sccc32)cc1 [Compound C90],IC50,[6],781 nM
same,IC50,[10],149 nM
same,IC50,[12],177 nM
"COc1cc(Nc2ncc3c(n2)-c2ccc(Cl)cc2C(c2c(F)cccc2OC)=NC3)ccc1C(=O)O [Alisertib, reference compound]",affinity for Aurora A kinase,[13],~1 nM
same,spindle phenotype,[14],mitotic arrest and spindle phenotypes similar to what was observed for C75
"COc1cc2c(c(OC)c1OC)-c1ccc(OC)c(=O)cc1[C@@H](NC(C)=O)CC2 [colchicine, reference compound]",suppression of fragmented spindle phenotype by MCAK RNAi,[15],not
same,"interaction with ch-TOG RNAi, fragmented spindle phenotype",[16],synergistic
